# According to ChEMBL document CHEMBL2434948, “Discovery, synthesis, and characterization of an orally bioavailable, brain penetrant inhibitor of mixed lineage kinase 3” (J Med Chem, 2013):
# Calls of active or inactive are those of the source. The rule behind the calls is not given here.
# Columns and labels:
# [1] = target: BDNF/NT-3 growth factors receptor (Homo sapiens, UniProt Q16620)
# Description: Inhibition of wild type human TRKB by high throughput ATP-[33P] radiolabeled assay
# [2] = target: T1, Mitogen-activated protein kinase 8 (Homo sapiens, UniProt P45983); assay: Inhibition of human wild type JNK1 at 1 uM by qPCR analysis relative to control
# T1 sequence (P45983 whole entry): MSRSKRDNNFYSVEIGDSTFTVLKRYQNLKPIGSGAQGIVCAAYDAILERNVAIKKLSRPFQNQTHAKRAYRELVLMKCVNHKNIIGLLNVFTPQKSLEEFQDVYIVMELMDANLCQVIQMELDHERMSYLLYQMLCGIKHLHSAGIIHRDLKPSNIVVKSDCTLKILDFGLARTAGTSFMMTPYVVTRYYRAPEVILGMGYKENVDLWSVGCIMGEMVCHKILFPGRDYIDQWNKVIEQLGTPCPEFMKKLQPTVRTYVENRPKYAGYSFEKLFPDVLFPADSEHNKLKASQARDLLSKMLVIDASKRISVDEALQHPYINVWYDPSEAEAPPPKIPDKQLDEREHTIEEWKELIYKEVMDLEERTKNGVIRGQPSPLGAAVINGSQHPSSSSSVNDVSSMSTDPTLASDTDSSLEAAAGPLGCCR
# [3] = target: Dual specificity tyrosine-phosphorylation-regulated kinase 1B (Homo sapiens) (UniProt Q9Y463); assay: Inhibition of human wild type DYRK1B at 1 uM by qPCR analysis relative to control
# [4] = target: T1, Mitogen-activated protein kinase 8
# Description: Inhibition of wild type human JNK1 by high throughput [33P]-ATP radiolabeled assay
# [5] = target: Mitogen-activated protein kinase 12 (Homo sapiens) (UniProt P53778); assay: Inhibition of human wild type p38g at 1 uM by qPCR analysis
# Sequence of Mitogen-activated protein kinase 12 (Homo sapiens) (P53778 whole entry): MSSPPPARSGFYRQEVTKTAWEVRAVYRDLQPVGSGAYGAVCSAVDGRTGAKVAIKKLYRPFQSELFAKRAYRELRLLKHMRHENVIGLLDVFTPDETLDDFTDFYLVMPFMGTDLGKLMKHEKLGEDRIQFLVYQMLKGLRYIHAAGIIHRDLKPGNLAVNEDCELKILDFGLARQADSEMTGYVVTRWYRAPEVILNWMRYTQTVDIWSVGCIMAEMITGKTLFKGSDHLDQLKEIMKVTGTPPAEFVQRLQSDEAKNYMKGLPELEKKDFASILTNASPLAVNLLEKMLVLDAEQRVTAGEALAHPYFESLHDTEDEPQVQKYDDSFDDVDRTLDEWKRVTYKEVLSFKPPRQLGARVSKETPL
# [6] = target: T2, Mitogen-activated protein kinase 14 (Homo sapiens, UniProt Q16539); assay: Inhibition of human wild type p38alpha at 1 uM by qPCR analysis
# T2 sequence (Q16539 whole entry): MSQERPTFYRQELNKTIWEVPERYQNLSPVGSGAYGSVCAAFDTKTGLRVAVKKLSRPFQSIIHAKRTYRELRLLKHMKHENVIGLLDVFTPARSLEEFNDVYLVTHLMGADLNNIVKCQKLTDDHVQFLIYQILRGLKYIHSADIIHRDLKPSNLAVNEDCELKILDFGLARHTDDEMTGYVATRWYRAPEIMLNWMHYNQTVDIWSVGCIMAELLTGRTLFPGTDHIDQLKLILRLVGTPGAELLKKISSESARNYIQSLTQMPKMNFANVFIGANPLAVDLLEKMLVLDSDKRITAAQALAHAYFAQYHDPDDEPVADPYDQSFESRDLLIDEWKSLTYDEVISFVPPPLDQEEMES
# [7] = target: Mitogen-activated protein kinase kinase kinase 9 (Homo sapiens, UniProt P80192)
# Description: Inhibition of MLK1 (unknown origin)
# [8] = target: Serine/threonine-protein kinase B-raf (Homo sapiens) (UniProt P15056); assay: Inhibition of human wild type BRAF at 1 uM by qPCR analysis
# [9] = target: T2, Mitogen-activated protein kinase 14
# Description: Inhibition of wild type human P38a by high throughput ATP-[33P] radiolabeled assay
# [10] = target: Tyrosine-protein kinase ZAP-70 (Homo sapiens, UniProt P43403)
# Description: Inhibition of wild type human ZAP70 by high throughput ATP-[33P] radiolabeled assay
# [11] = target: Mitogen-activated protein kinase 3 (Homo sapiens) (UniProt P27361); assay: Inhibition of human wild type ERK1 at 1 uM by qPCR analysis
# [12] = target: T1, Mitogen-activated protein kinase 8; remark: listed apart in the source
# Description: Inhibition of wild type human wild type JNK1 by qPCR analysis
# [13] = target: Cyclin-dependent kinase 11B (Homo sapiens) (UniProt P21127); assay: Inhibition of human wild type CDK11 at 1 uM by qPCR analysis relative to control
# [14] = target: Dual specificity protein kinase CLK2 (Homo sapiens) (UniProt P49760); assay: Inhibition of human wild type CLK2 at 1 uM by qPCR analysis relative to control
# [15] = target: Ribosomal protein S6 kinase alpha-6 (Homo sapiens) (UniProt Q9UK32); assay: Inhibition of human wild type RSK4 at 1 uM by qPCR analysis
# [16] = target: Rho-associated protein kinase 1 (Homo sapiens, UniProt Q13464); conditions: 1 uM
# Description: Inhibition of human wild type ROCK1 at 1 uM by qPCR analysis relative to control
# [17] = target: Mitogen-activated protein kinase kinase kinase kinase 4 (Homo sapiens) (UniProt O95819); assay: Binding affinity to human wild type MAP4K4 at 1 uM by qPCR analysis
# [18] = target: Cyclin-dependent kinase-like 2 (Homo sapiens) (UniProt Q92772); assay: Inhibition of human wild type CDKL2 at 1 uM by qPCR analysis relative to control
# Sequence of Cyclin-dependent kinase-like 2 (Homo sapiens) (Q92772 whole entry): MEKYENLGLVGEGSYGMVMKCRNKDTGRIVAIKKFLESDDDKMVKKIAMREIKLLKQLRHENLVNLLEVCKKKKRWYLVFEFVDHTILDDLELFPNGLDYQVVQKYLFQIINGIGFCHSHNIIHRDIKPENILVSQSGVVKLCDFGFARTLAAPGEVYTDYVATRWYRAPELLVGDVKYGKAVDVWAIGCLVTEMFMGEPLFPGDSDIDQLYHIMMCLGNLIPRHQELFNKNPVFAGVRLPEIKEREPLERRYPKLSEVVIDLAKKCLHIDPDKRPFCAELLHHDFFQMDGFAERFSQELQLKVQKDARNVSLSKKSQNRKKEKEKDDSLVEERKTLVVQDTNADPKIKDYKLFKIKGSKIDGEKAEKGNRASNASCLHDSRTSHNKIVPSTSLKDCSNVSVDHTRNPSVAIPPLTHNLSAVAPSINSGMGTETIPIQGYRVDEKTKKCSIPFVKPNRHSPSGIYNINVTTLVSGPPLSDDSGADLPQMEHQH
# [19] = target: T3, Mitogen-activated protein kinase 1 (Homo sapiens, UniProt P28482); assay: Inhibition of human wild type ERK2 at 1 uM by qPCR analysis
# T3 sequence (P28482 whole entry): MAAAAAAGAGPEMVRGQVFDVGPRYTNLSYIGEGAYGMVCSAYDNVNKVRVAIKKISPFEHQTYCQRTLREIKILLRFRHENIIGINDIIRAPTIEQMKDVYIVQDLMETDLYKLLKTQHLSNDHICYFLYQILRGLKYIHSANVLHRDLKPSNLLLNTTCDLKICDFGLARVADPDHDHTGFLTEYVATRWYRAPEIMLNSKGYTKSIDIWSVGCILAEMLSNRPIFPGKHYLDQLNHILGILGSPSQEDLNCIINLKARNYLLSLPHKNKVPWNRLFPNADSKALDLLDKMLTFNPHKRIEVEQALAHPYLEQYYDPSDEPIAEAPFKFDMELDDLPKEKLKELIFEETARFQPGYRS
# [20] = tested on: Leucine-rich repeat serine/threonine-protein kinase 2 (Homo sapiens), Q5S007 [G2019S]; assay: Inhibition of human LRRK2 G2019S mutant at 1 uM by qPCR analysis relative to control
# Sequence of Leucine-rich repeat serine/threonine-protein kinase 2 (Homo sapiens), Q5S007 [G2019S] (Q5S007 whole entry G2019S): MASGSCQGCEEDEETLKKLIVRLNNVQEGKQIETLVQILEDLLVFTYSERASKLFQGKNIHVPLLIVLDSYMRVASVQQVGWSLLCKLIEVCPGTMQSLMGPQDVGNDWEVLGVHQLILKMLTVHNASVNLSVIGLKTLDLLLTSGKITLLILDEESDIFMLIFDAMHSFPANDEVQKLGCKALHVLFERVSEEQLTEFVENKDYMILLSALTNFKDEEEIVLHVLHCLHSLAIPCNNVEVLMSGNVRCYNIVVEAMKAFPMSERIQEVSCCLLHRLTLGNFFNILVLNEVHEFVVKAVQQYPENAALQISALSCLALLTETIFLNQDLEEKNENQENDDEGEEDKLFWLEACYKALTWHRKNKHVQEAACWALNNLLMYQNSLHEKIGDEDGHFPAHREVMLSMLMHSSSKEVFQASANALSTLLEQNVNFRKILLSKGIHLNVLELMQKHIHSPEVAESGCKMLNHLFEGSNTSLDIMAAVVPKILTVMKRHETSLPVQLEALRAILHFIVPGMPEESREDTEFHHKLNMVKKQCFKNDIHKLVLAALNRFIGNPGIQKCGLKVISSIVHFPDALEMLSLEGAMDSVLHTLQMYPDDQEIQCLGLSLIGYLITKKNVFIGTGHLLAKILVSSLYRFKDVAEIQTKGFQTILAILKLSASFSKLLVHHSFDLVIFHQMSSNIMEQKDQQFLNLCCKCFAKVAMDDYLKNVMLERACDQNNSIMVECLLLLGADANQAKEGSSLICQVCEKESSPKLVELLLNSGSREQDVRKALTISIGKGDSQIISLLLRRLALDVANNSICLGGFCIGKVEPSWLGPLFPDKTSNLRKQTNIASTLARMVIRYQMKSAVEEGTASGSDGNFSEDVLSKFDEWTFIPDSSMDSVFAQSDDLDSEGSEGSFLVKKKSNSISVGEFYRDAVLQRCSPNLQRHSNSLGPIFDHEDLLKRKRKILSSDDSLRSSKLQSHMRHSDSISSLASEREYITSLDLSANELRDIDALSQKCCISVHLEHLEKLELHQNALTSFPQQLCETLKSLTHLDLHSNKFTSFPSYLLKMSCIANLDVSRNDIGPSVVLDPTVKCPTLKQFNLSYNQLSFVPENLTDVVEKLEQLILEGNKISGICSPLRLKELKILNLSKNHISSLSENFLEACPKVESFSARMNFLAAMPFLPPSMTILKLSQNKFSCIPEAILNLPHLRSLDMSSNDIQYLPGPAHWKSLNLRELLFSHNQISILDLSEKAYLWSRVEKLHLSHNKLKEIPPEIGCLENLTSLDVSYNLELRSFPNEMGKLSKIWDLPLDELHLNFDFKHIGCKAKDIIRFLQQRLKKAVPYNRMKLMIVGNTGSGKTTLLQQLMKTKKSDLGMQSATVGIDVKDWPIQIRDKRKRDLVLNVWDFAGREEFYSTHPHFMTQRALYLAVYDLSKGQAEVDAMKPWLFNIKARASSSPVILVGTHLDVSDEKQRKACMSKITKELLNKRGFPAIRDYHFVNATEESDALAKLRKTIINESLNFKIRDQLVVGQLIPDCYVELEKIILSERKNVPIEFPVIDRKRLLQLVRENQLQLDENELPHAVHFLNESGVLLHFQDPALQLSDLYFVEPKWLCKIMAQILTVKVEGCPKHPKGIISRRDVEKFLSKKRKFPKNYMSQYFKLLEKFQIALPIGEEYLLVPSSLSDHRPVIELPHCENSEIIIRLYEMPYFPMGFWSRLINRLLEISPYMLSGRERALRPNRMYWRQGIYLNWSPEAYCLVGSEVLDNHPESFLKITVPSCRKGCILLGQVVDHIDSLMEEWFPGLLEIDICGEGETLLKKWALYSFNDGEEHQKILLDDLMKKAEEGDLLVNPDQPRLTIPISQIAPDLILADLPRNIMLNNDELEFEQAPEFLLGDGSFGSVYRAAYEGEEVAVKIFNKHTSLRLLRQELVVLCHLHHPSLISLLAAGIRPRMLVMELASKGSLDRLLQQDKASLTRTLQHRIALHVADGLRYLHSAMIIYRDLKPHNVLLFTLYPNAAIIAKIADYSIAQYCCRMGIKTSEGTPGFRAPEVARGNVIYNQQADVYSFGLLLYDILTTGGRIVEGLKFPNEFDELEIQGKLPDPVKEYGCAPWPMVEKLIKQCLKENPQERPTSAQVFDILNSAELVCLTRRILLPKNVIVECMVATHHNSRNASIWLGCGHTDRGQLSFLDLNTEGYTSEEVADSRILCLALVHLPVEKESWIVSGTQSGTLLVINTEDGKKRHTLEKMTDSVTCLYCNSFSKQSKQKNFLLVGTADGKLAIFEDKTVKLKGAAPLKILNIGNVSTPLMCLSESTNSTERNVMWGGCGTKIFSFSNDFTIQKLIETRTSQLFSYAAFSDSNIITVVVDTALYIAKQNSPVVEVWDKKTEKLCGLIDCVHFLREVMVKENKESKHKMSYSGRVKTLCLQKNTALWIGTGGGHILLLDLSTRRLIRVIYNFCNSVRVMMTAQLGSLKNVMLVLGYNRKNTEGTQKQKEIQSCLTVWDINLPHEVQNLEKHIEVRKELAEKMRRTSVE
# [21] = target: RAC-gamma serine/threonine-protein kinase (Homo sapiens) (UniProt Q9Y243); assay: Inhibition of human wild type AKT3 at 1 uM by qPCR analysis
# [22] = target: Proto-oncogene tyrosine-protein kinase Src (Homo sapiens, UniProt P12931)
# Sequence of Proto-oncogene tyrosine-protein kinase Src (P12931 2-536 limits assumed): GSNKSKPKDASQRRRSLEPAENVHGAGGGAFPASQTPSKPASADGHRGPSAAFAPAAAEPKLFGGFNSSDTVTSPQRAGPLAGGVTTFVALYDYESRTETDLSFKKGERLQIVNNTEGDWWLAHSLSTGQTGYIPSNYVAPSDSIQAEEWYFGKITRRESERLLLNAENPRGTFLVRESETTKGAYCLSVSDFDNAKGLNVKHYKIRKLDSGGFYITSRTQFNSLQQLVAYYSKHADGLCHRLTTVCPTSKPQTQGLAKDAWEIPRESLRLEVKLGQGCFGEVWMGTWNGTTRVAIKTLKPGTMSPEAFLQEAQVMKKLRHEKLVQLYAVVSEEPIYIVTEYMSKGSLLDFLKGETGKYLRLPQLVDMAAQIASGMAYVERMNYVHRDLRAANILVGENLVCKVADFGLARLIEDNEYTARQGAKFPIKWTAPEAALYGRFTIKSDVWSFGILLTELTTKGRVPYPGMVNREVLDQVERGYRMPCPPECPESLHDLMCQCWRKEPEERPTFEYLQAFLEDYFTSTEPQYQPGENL
# Description: Inhibition of wild type human SRC by high throughput ATP-[33P] radiolabeled assay
# [23] = target: Vascular endothelial growth factor receptor 1 (Homo sapiens, UniProt P17948)
# Description: Inhibition of wild type human FLT1 by high throughput ATP-[33P] radiolabeled assay
# [24] = target: Mitogen-activated protein kinase 13 (Homo sapiens) (UniProt O15264); assay: Inhibition of human wild type p38d at 1 uM by qPCR analysis
# Aurora kinase B = Aurora kinase B (Homo sapiens, UniProt Q96GD4)
# Description: Inhibition of wild type human Aurora kinase B by high throughput ATP-[33P] radiolabeled assay
# [25] = target: T3, Mitogen-activated protein kinase 1
# Description: Inhibition of wild type human ERK2 by high throughput ATP-[33P] radiolabeled assay
# Brain = assay: Drug uptake in C57BL/6 mouse brain at 10 mg/kg, iv measured over 6 hrs; type: ADME, organism-based; design: dose 10 mg/kg, route intravenous; conditions: in vivo
# [26] = target: Tyrosine-protein kinase ABL1 (Homo sapiens, UniProt P00519)
# Description: Inhibition of wild type human ABL1 by high throughput ATP-[33P] radiolabeled assay
# [27] = target: Mitogen-activated protein kinase kinase kinase 10 (Homo sapiens, UniProt Q02779)
# Description: Inhibition of MLK2 (unknown origin)
# [28] = target: Protein delta homolog 1 (Homo sapiens) (UniProt P80370); assay: Inhibition of human wild type DLK at 1 uM by qPCR analysis relative to control
smiles,measurement,setting,value
CN1CCN(Cc2ccc(-c3cnc4[nH]cc(-c5ccc6[nH]ccc6c5)c4c3)cc2)CC1,IC50,[1],217 nM
same,inhibition,[2],99%
same,inhibition,[3],> 90%
same,IC50,[4],3200 nM
same,inhibition,[5],inactive
same,inhibition,[6],inactive
same,IC50,[7],19 nM
same,inhibition,[8],inactive
same,IC50,[9],12000 nM
same,IC50,[10],5050 nM
same,inhibition,[11],inactive
same,IC50,[12],3280 nM
same,inhibition,[13],> 90%
same,inhibition,[14],> 90%
same,inhibition,[15],inactive
same,inhibition,[16],> 90%
same,inhibition,[17],Active
same,inhibition,[18],> 90%
same,inhibition,[19],inactive
same,inhibition,[20],96%
same,inhibition,[21],inactive
same,IC50,[22],4330 nM
same,IC50,[23],39 nM
same,inhibition,[24],inactive
same,IC50,Aurora kinase B,123 nM
same,IC50,[25],6290 nM
same,Drug uptake,Brain,Active
same,IC50,[26],6.8 nM
same,IC50,[27],42 nM
same,inhibition,[28],88%
